Assay [1] concerns the target T1, BRD4 bromo domain 2 [BRD4(2)] (Homo sapiens, UniProt O60885).
T1 construct: N-terminally His6-tagged BRD4(2) (amino acids 357-445); made in house; host or cells: E. coli
Nature of the assay: BRD4/acetylated peptide H4 binding assay (TR-FRET), BRD4 bromo domain 2. As to conditions: inhibition of BRD4(2)/Ac-H4 peptide interaction. The essentials:
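IC50 comes from a 4-parameter fit over 0.1 nM–20 μM in duplicate, normalised to DMSO and no-protein controls. TR-FRET (Eu-streptavidin/anti-His-XL665) tracks His-tagged BRD4(2) 357-445 at 100 nM binding Ac-H4 peptide in HEPES pH 7.5 buffer. Incubation was 1 h at 22 °C, then at 4 °C ≥3 h up to overnight.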
(Time-resolved FRET reads energy transfer from a long-lived donor to a nearby acceptor.)

In assay [2] the test system is MOLM-13 cells. Kind of assay: Cell proliferation assay (alamarBlue), MOLM-13. The conditions noted are these: Homo sapiens; MOLM-13 (acute myeloid leukaemia), 96 hours. Type of assay: cell-based. In outline:
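Cells in RPMI1640 with 10% FCS, read by alamarBlue fluorescence (ex 530, em 590 nm) after overnight plating and again after 96 h compound exposure at 37° C (1E-5 to 1E-8 M). Baseline-subtracted signal compared with buffer-treated cells to derive IC50.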

In assay [3] the test system is MOLP-8 cells. Kind of assay: Cell proliferation assay (alamarBlue), MOLP-8. Type of assay: cell-based. As to conditions: Homo sapiens; MOLP-8 (multiple myeloma), 120 hours. The essentials:
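MOLP-8 cells plated at 4000 cells/well in RPMI1640 with 20% FCS, read after overnight culture, then treated with dilutions from 1E-5 to 1E-8 M for 120 hours at 37° C. Viability by alamarBlue fluorescence (ex 530/em 590 nm); initial reads subtracted, compared with buffer-treated cells, and IC50 calculated for 50% proliferation inhibition.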
A general note: Alamar Blue is a resazurin reagent that responds to reducing activity.

In assay [4] the test system is B16F10 cells. Kind of assay: Cell proliferation assay (alamarBlue), B16F10. As to conditions: Mus musculus, B16-F10; B16F10 (melanoma, BRAF wild-type), 96 hours. The format is cell-based. In outline:
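B16F10 cells in DMEM with 10% FCS were exposed to seven concentrations from 1E-5 to 1E-8 M for 96 hours at 37 °C. Viability was read with alamarBlue (ex 530/em 590 nm), and day-0 signal was subtracted. IC50 was derived relative to buffer-treated cells.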

As a reminder, the IC50 is the concentration needed to halve the response being measured. Consider `C[C@@H]1C(=O)N(C)c2ccc(Nc3cccc(S(=O)(=O)N4CCN(CC(F)(F)F)CC4)c3)nc2N1C1CCNCC1` [Example 126, (3R)-1,3-dimethyl-4-(piperidin-4-yl)-6-[(3-{[4-(2,2,2-trifluoroethyl)piperazin-1-yl]sulphonyl}phenyl)amino]-3,4-dihydropyrido[2,3-b]pyrazin-2(1H)-one], for which the half-inhibitory concentration (IC50) was found to be 86 nM in assay [1], 84 nM in assay [2], 130 nM in assay [3] and 1160 nM in assay [4].

Consider `C[C@@H]1C(=O)N(C)c2ccc(Nc3cccc(S(=O)(=O)N[C@H]4CC[C@H](N5CCN(CC6CC6)CC5)CC4)c3)nc2N1C1CCNCC1` [Example 127, N-{trans-4-[4-(cyclopropylmethyl)piperazin-1-yl]cyclohexyl}-3-{[(3R)-1,3-dimethyl-2-oxo-4-(piperidin-4-yl)-1,2,3,4-tetrahydropyrido[2,3-b]pyrazin-6-yl]amino}-benzenesulphonamide], for which the IC50 was 90 nM in assay [1], more than 10000 nM in assay [2], more than 10000 nM in assay [3] and more than 20000 nM in assay [4].

For `C[C@@H]1C(=O)N(C)c2ccc(Nc3cccc(S(=O)(=O)N(C)C)c3)cc2N1C1CCNCC1` [Example 129, 3-{[(3R)-1,3-dimethyl-2-oxo-4-(piperidin-4-yl)-1,2,3,4-tetrahydroquinoxalin-6-yl]amino}-N,N-dimethylbenzenesulphon-amide], the IC50 worked out at 97 nM in assay [1], 536 nM in assay [2], 567 nM in assay [3] and 2160 nM in assay [4].

As for `C[C@@H]1C(=O)N(C)c2ccc(Nc3cccc(C(=O)N[C@H]4CC[C@H](N5CCN(CC6CC6)CC5)CC4)c3)nc2N1C1CCNCC1` [Example 131, N-{trans-4-[4-(cyclo-propylmethyl)piperazin-1-yl]cyclohexyl}-3-{[(3R)-1,3-dimethyl-2-oxo-4-(piperidin-4-yl)-1,2,3,4-tetrahydropyrido[2,3-b]pyrazin-6-yl]amino}benzamide], the IC50 was 188 nM in assay [1], more than 10000 nM in assay [2], more than 20000 nM in assay [3] and more than 20000 nM in assay [4].

For `C[C@@H]1C(=O)N(C)c2ccc(Nc3cccc(C(=O)N(C)C)c3)cc2N1C1CCNCC1` [Example 133, 3-{[(3R)-1,3-dimethyl-2-oxo-4-(piperidin-4-yl)-1,2,3,4-tetrahydroquinoxalin-6-yl]amino}-N,N-dimethylbenzamide], the IC50 is 990 nM in assay [1], more than 10000 nM in assay [2], 2010 nM in assay [3] and more than 20000 nM in assay [4].

Turning to `Cc1nnc(-c2cccc(Nc3ccc4c(n3)N(C3CCOCC3)[C@H](C)C(=O)N4C)c2)o1` [Example 134, (3R)-1,3-Dimethyl-6-{[3-(5-methyl-1,3,4-oxadiazol-2-yl)phenyl]amino}-4-(tetrahydro-2H-pyran-4-yl)-3,4-dihydropyrido[2,3-b]pyrazin-2(1H)-one], the IC50 in assay [1] stood at 191 nM; in assay [2], 546 nM; in assay [3], 453 nM; in assay [4], 768 nM.

For the origin of these results see patent publication US20160176867A1, “MODIFIED BET-PROTEIN-INHIBITING DIHYDROQUINOXALINONES AND DIHYDROPYRIDOPYRAZINONES” (BAYER PHARMA AKTIENGESELLSCHAFT, priority 2013, published 2016).
